# Measured values as given in ChEMBL document CHEMBL5370609, “Amidine-Based Cationic Conjugated Oligoelectrolytes with Antimicrobial Activity against Pseudomonas aeruginosa Biofilms” (J Med Chem, 2023).
# Activity calls are given as the source filed them. The calls are words filed in the database; no cut-off is given here.
# Columns and labels:
# [1] = tested on: Staphylococcus aureus; assay: Antibacterial activity against Staphylococcus aureus ATCC 29213 assessed as inhibition of bacterial growth incubated overnight by broth microdilution method; type: functional
# [2] = tested on: Klebsiella pneumoniae; assay: Antibacterial activity against Klebsiella pneumoniae ATCC 700603 assessed as inhibition of bacterial growth incubated overnight by broth microdilution method; type: functional
# [3] = Selectivity index, IC50 for cytotoxicity against human HepG2 cells to MIC for antibacterial activity against Pseudomonas aeruginosa ATCC 27853 assessed as inhibition of bacterial growth; type: toxicity, cell-based; conditions: read-out: Selectivity Index
# [4] = tested on: Pseudomonas aeruginosa; assay: Antibacterial activity against Pseudomonas aeruginosa ATCC 27853 assessed as inhibition of bacterial growth incubated overnight by broth microdilution method; type: functional
# [5] = Cytotoxicity against human HepG2 cells assessed as reduction in cell viability incubated for 24 hrs by MTT assay; type: toxicity, cell-based
# [6] = tested on: Escherichia coli; assay: Antibacterial activity against Escherichia coli ATCC 25922 assessed as inhibition of bacterial growth incubated for overnight by broth microdilution method; type: functional
# [7] = tested on: Pseudomonas aeruginosa; assay: Inhibition of biofilm formation in Pseudomonas aeruginosa PAO1 at below MIC incubated for 24 hrs by crystal violet staining based analysis; type: functional, organism-based
# [8] = tested on: Pseudomonas aeruginosa; assay: Antibiofilm activity in Pseudomonas aeruginosa PAO1 assessed as eradication of preformed biofilm at 64 to 128 ug/ml incubated for 24 hr by BacTiter Glo reagent based luminescence analysis; type: functional, organism-based; conditions: dose 64-128 µg/ml
# [9] = tested on: Pseudomonas aeruginosa; assay: Inhibition of biofilm formation in Pseudomonas aeruginosa PAO1 incubated for 24 hrs by crystal violet staining based analysis; type: functional
# [10] = tested on: Pseudomonas aeruginosa; assay: Antibacterial activity against Pseudomonas aeruginosa PAO1 assessed as inhibition of bacterial growth incubated overnight by broth microdilution method; type: functional
# [11] = tested on: Pseudomonas aeruginosa; assay: Antibiofilm activity against preformed biofilm in Pseudomonas aeruginosa PAO1 assessed as reduction in biofilm viability upto 1024 ug/ml incubated for 24 hrs by BacTiter Glo reagent based luminescence analysis; type: functional, organism-based; conditions: dose <= 1024.0 µg/ml
# [12] = tested on: Pseudomonas aeruginosa; assay: Bactericidal activity against Pseudomonas aeruginosa PAO1 assessed as reduction in viable bacteria at 4 times of MIC measured after 4 to 8 hrs by time-kill kinetics assay; type: functional, organism-based; conditions: time 4-8 hrs
# [13] = tested on: Pseudomonas aeruginosa; assay: Antibiofilm activity against preformed biofilm in Pseudomonas aeruginosa PAO1 assessed as bacteria killing at 1024 ug/ml incubated for 24 hrs by BacTiter Glo reagent based luminescence analysis; type: functional, organism-based; conditions: dose 1024.0 µg/ml
# [14] = tested on: Pseudomonas aeruginosa; assay: Induction of resistance development in Pseudomonas aeruginosa PAO1 assessed as fold increase in MIC measured after consecutive passages for 21 days by serial passaging assay relative to day 1 MIC; type: functional; conditions: time 21 day
# [15] = tested on: Pseudomonas aeruginosa; assay: Induction of spontaneous resistance development in Pseudomonas aeruginosa PAO1 assessed as frequency of resistance at 2 to 4 times of MIC incubated for 48 hrs by FoR assay; type: functional
# [16] = tested on: Pseudomonas aeruginosa; assay: Bactericidal activity against Pseudomonas aeruginosa PAO1 assessed as reduction in colony forming units at 4 times of MIC incubated for 1 hrs by time-kill kinetics assay relative to control; type: functional; design: scale not given: the % may be the effect or the level left
# [17] = Dissociation constant, pKa of compound at pH 7.4 by potentiometric titration method; type: physicochemical
# [18] = tested on: Pseudomonas aeruginosa; assay: Antibacterial activity against Pseudomonas aeruginosa PAO1 infected in C57BL/6 mouse wound model assessed as reduction in bacterial count on wound bed pre-infected with bacteria for 4 hrs followed by topical administration of compounds for 20 hrs and measured 24 hrs post infection; type: functional, organism-based; conditions: dose 0.1-2 %
# [19] = tested on: Pseudomonas aeruginosa; assay: Antibacterial activity against Pseudomonas aeruginosa PAO1 infected in C57BL/6 mouse wound model assessed as log reduction in colony forming unit on wound bed at 0.5 % w/v pre-infected with bacteria for 4 hrs followed by topical administration of compounds for 20 hrs and measured 24 hrs post infection; type: functional
# [20] = tested on: Pseudomonas aeruginosa; assay: Bactericidal activity against Pseudomonas aeruginosa PAO1 assessed as bacterial eradication at 8 times of MIC measured at 8 hrs by time-kill kinetics assay relative to control; type: functional
# [21] = tested on: Pseudomonas aeruginosa; assay: Bactericidal activity against Pseudomonas aeruginosa PAO1 assessed as reduction in viable bacteria at 4 times of MIC measured at 8 to 48 hrs by time-kill kinetics assay; type: functional, organism-based; conditions: time 8-48 hrs
# [22] = tested on: Pseudomonas aeruginosa; assay: Bactericidal activity against Pseudomonas aeruginosa PAO1 assessed as reduction in bacterial growth at 8 times of MIC measured after 48 hrs by time-kill kinetics assay; type: functional, organism-based
# [23] = tested on: Pseudomonas aeruginosa; assay: Antibacterial activity against Pseudomonas aeruginosa PAO1 infected in C57BL/6 mouse wound model assessed as reduction in bacterial count on wound bed at 2 to 8 % w/v pre-infected with bacteria for 24 hrs followed by topical administration of compounds for 24 hrs; type: functional, organism-based; conditions: dose 2-8 %
# [24] = tested on: Pseudomonas aeruginosa; assay: Antibacterial activity against Pseudomonas aeruginosa PAO1 infected in C57BL/6 mouse wound model assessed as log reduction in colony forming unit on wound bed at 2 % w/v pre-infected with bacteria for 4 hrs followed by topical administration of compounds for 20 hrs and measured 24 hrs post infection; type: functional
# [25] = tested on: NIH3T3; assay: Cytotoxicity against mouse 3T3 cells assessed as reduction in cell viability incubated for 24 hrs by CellTiter-Glo reagent based luminescence assay; type: toxicity; conditions: nih3t3, 24 h
# [26] = tested on: Pseudomonas aeruginosa; assay: Bactericidal activity against Pseudomonas aeruginosa PAO1 assessed as log reduction in colony forming units at 4 times of MIC incubated for 1 hrs by time-kill kinetics assay; type: functional
# [27] = tested on: Pseudomonas aeruginosa; assay: Inhibition of biofilm formation in Pseudomonas aeruginosa PAO1 at below MIC incubated for 24 hrs by crystal violet staining based analysis relative to control; type: functional
# [28] = tested on: HEK293; assay: Cytotoxicity against HEK293 cells assessed as reduction in cell viability incubated for 24 hrs by CellTiter-Glo reagent based luminescence assay; type: toxicity; conditions: human, hek293, 24 h
# [29] = tested on: Pseudomonas aeruginosa; assay: Antibiofilm activity against preformed biofilm in Pseudomonas aeruginosa PAO1 assessed as biofilm killing at 128 ug/ml incubated for 24 hrs by BacTiter Glo reagent based luminescence analysis; type: functional, organism-based; conditions: dose 128.0 µg/ml
# [30] = Hemolytic activity in human blood assessed as hemolysis at 492 ug/ml incubated for 45 mins by absorbance based plate reader analysis relative to control; type: toxicity, tissue-based; conditions: at 492 µg/mL, read-out: Activity
# [31] = tested on: Pseudomonas aeruginosa; assay: Antibiofilm activity in Pseudomonas aeruginosa PAO1 assessed as eradication of preformed biofilm at 256 ug/ml incubated for 24 hr by BacTiter Glo reagent based luminescence analysis; type: functional, organism-based; conditions: dose 256.0 µg/ml
compound,measurement,setting,value
CC(=O)O.CC(=O)O.CC(=O)O.CC(=O)O.CCC(=N)N(C)CCCOc1cc(/C=C/c2ccc(/C=C/c3cc(OCCCN(C)C(=N)CC)cc(OCCCN(C)C(=N)CC)c3)cc2)cc(OCCCN(C)C(=N)CC)c1,MIC,[1],1 µg/mL
same,MIC,[2],16 µg/mL
same,selectivity ratio,[3],> 128
same,MIC,[4],8 µg/mL
same,IC50 at 24 h,[5],> 1020 µg/mL
same,MIC,[6],1 µg/mL
CC(=O)O.CC(=O)O.CC(=O)O.CC(=O)O.CCC(=N)N(CCCOc1cc(/C=C/c2ccc(/C=C/c3cc(OCCCN(C(=N)CC)C4CC4)cc(OCCCN(C(=N)CC)C4CC4)c3)cc2)cc(OCCCN(C(=N)CC)C2CC2)c1)C1CC1,MIC,[1],1 µg/mL
same,MIC,[2],8 µg/mL
same,selectivity ratio,[3],8
same,MIC,[4],16 µg/mL
same,IC50 at 24 h,[5],128 µg/mL
same,MIC,[6],2 µg/mL
CC(=O)O.CC(=O)O.CC(=O)O.CC(=O)O.CN(CCCOc1cc(/C=C/c2ccc(/C=C/c3cc(OCCCN(C)C(=N)C4CC4)cc(OCCCN(C)C(=N)C4CC4)c3)cc2)cc(OCCCN(C)C(=N)C2CC2)c1)C(=N)C1CC1,MIC,[1],1 µg/mL
same,MIC,[2],8 µg/mL
same,selectivity ratio,[3],128
same,MIC,[4],8 µg/mL
same,IC50 at 24 h,[5],1020 µg/mL
same,MIC,[6],1 µg/mL
COLISTIN,MIC,[2],2 µg/mL
same,MIC,[4],2 µg/mL
same,MIC,[6],2 µg/mL
CC(=O)O.CC(=O)O.CC(=O)O.CC(=O)O.CCCN(CCCOc1cc(/C=C/c2ccc(/C=C/c3cc(OCCCN(CCC)C(=N)CC)cc(OCCCN(CCC)C(=N)CC)c3)cc2)cc(OCCCN(CCC)C(=N)CC)c1)C(=N)CC,MIC,[1],1 µg/mL
same,MIC,[2],8 µg/mL
same,selectivity ratio,[3],2
same,MIC,[4],16 µg/mL
same,IC50 at 24 h,[5],32 µg/mL
same,MIC,[6],2 µg/mL
C/N=C(/C)NCCCOc1cc(/C=C/c2ccc(/C=C/c3cc(OCCCN/C(C)=N\C)cc(OCCCN/C(C)=N/C)c3)cc2)cc(OCCCN/C(C)=N/C)c1.CC(=O)O.CC(=O)O.CC(=O)O.CC(=O)O,MIC,[1],1 µg/mL
same,MIC,[2],16 µg/mL
same,selectivity ratio,[3],> 32
same,MIC,[4],32 µg/mL
same,IC50 at 24 h,[5],> 1020 µg/mL
same,MIC,[6],2 µg/mL
POLYMYXIN B,inhibition,[7],inactive
same,Activity,[8],100%
same,MBIC50,[9],2 µg/mL
same,MBIC90,[9],2 µg/mL
same,MIC,[10],2 µg/mL
O=C(O)c1cn(C2CC2)c2cc(N3CCNCC3)c(F)cc2c1=O [CIPROFLOXACIN],inhibition,[7],inactive
same,MBIC50,[9],2 µg/mL
same,MBIC90,[9],2 µg/mL
same,Activity,[11],inactive
CC(=O)O.CC(=O)O.CC(=O)O.CC(=O)O.CCC(=N)NCCCOc1cc(/C=C/c2ccc(/C=C/c3cc(OCCCNC(=N)CC)cc(OCCCNC(=N)CC)c3)cc2)cc(OCCCNC(=N)CC)c1,MIC,[1],1 µg/mL
same,MIC,[2],8 µg/mL
same,selectivity ratio,[3],128
same,MIC,[4],8 µg/mL
same,IC50 at 24 h,[5],1020 µg/mL
same,MIC,[6],1 µg/mL
CC(=O)O.CC(=O)O.CC(=O)O.CC(=O)O.N=C(CC1CC1)NCCCOc1cc(/C=C/c2ccc(/C=C/c3cc(OCCCNC(=N)CC4CC4)cc(OCCCNC(=N)CC4CC4)c3)cc2)cc(OCCCNC(=N)CC2CC2)c1,MIC,[1],1 µg/mL
same,MIC,[2],4 µg/mL
same,selectivity ratio,[3],32
same,MIC,[4],8 µg/mL
same,IC50 at 24 h,[5],256 µg/mL
same,MIC,[6],2 µg/mL
NC[C@H]1O[C@H](O[C@H]2[C@H](O)[C@@H](O[C@H]3O[C@H](CO)[C@@H](O)[C@H](N)[C@H]3O)[C@H](N)C[C@@H]2N)[C@H](N)C[C@@H]1O [TOBRAMYCIN],Activity,[12],inactive
same,inhibition,[7],inactive
same,Activity,[13],Active
same,fold change (FC),[14],64
same,MBIC50,[9],0.5 µg/mL
same,MBIC90,[9],0.5 µg/mL
same,MIC,[10],0.5 µg/mL
same,Activity,[15],Active
CC[C@H]1OC(=O)[C@H](C)[C@@H](O[C@H]2C[C@@](C)(OC)[C@@H](O)[C@H](C)O2)[C@H](C)[C@@H](O[C@@H]2O[C@H](C)C[C@H](N(C)C)[C@H]2O)[C@](C)(O)C[C@@H](C)C(=O)[C@H](C)[C@@H](O)[C@]1(C)O [ERYTHROMYCIN],MIC,[1],0.25 µg/mL
CC(=O)O.CC(=O)O.CC(=O)O.CC(=O)O.N=C(NCCCOc1cc(/C=C/c2ccc(/C=C/c3cc(OCCCNC(=N)C4CC4)cc(OCCCNC(=N)C4CC4)c3)cc2)cc(OCCCNC(=N)C2CC2)c1)C1CC1,Activity,[16],99.9%
same,MIC,[1],0.5 µg/mL
same,pKa,[17],10
same,selectivity ratio,[3],512
same,Activity,[18],Dose-Dependent Effect
same,log(activity),[19],1.5
same,Activity,[20],100%
same,Activity,[21],inactive
same,Activity,[22],Active
same,fold change (FC),[14],4
same,IC50 at 24 h,[5],1020 µg/mL
same,MBIC50,[9],1 µg/mL
same,MBIC90,[9],4 µg/mL
same,Activity,[23],Active
same,log(activity),[24],2.8
same,MIC,[10],8 µg/mL
same,Activity,[25],Non-Toxic
same,log(activity),[26],3
same,inhibition (INH),[27],~31%
same,Activity,[15],<1.3 10^-8No_unit
same,Activity,[28],Non-Toxic
same,Activity,[29],Active
same,"hemolysis at 0.75 h, 492 ug/ml",[30],0.2%
same,Activity,[31],Active
C(=C\c1cc(OCCCNC2=NCCC2)cc(OCCCNC2=NCCC2)c1)/c1ccc(/C=C/c2cc(OCCCNC3=NCCC3)cc(OCCCNC3=NCCC3)c2)cc1.CC(=O)O.CC(=O)O.CC(=O)O.CC(=O)O,MIC,[1],1 µg/mL
same,MIC,[2],16 µg/mL
same,selectivity ratio,[3],64
same,MIC,[4],16 µg/mL
same,IC50 at 24 h,[5],1020 µg/mL
same,MIC,[6],2 µg/mL
CC(=O)O.CC(=O)O.CC(=O)O.CC(=O)O.CCCN(CCCOc1cc(/C=C/c2ccc(/C=C/c3cc(OCCCN(CCC)C(=N)C4CC4)cc(OCCCN(CCC)C(=N)C4CC4)c3)cc2)cc(OCCCN(CCC)C(=N)C2CC2)c1)C(=N)C1CC1,MIC,[1],1 µg/mL
same,selectivity ratio,[3],0.5
same,IC50 at 24 h,[5],16 µg/mL
